The subject of data set [1] is NMA neurotoxicity in 15-day old chick embryo retina. As to the kind of experiment: NMDA/KA Antagonist Assay: prevention of NMA neurotoxicity in chick embryo retina. Format: cell-based. The following applies: Gallus gallus, 0.5 h; NMA 200 μM, retina incubated 30 min at 37° C in BSS, complete protection in all specimens (n>6); read-out: antagonist potency vs NMA: concentration required to totally prevent a neurotoxic reaction.
Description: Two agonists were employed in the present test, each at a concentration established previously to be the lowest concentration required to consistently cause a fully-developed retinal lesion: KA (25 μM) and NMA (200 μM). […] Internal controls in each experiment consisted of at least six specimens being incubated with agonist alone. […] The method of tissue preparation was as follows: 15-day old chick embryos were decapitated and their eyes removed and cut into quadrants after excising the cornea and removing the lens, vitreous and iris. The retinal quadrants were then gently separated from the pigment epithelium and incubated for 30 min. at 37° C. in BSS to which an agonist or agonist plus antagonist was added. The BSS contained 140 mM Na^+, 5.0 mM K^+, 0.5 mM Ca^++, 4 5 mM mG^++, 150 mM Cl^-, 5.6 mM glucose and bicarbonate/phosphate buffer (pH 7.3). After incubation for 30 min., the retinal quadrants were fixed by immersion in phosphate-buffered solution containing 1.5% glutaraldehyde and 1% paraformaldehyde, then additionally fixed in 1% osmium tetroxide, dehydrated in graded ethanols, cleared in toluene and embedded in araldite. Sections were cut 1 micron thick on a Sorval ultratome and stained with Methylene blue/Azure 11 for histopathological evaluation by light microscopy.

Data set [2] concerns KA neurotoxicity in 15-day old chick embryo retina. As to the kind of experiment: NMDA/KA Antagonist Assay: prevention of KA neurotoxicity in chick embryo retina. Also noted: key: --: A dash signifies no antagonist action. Format: cell-based. As to conditions: KA 25 μM, retina incubated 30 min at 37° C in BSS. The method, then:
A 15-day old chick embryo retina, incubated for 30 min. in a balanced sat solution (BSS) containing 1 mM Glu, developed a full lesion resembling that described in the immature mouse retina following s.c. administration of Glu. Other excitotoxin agonists also produce acute lesions within 30 min., each agent being effective at a concentration proportional to its known excitatory and toxic potencies. The pattern of cellular degeneration is restricted in each case to the ganglion cell, inner plexiform and inner nuclear layers, but within these areas certain agonists induce different patterns of degeneration, the differences being most pronounced between NMA and KA. Two agonists were employed in the present test, each at a concentration established previously to be the lowest concentration required to consistently cause a fully-developed retinal lesion: KA (25 μM) and NMA (200 μM). Procyclidine, biperiden and trihexyphenidyl were tested at various concentrations for their ability to prevent KA or NMA neurotoxicity. […] Internal controls in each experiment consisted of at least six specimens being incubated with agonist alone. A typical toxic reaction had to be present in all controls and absent from all experimental specimens in order to qualify as a blocking effect. The method of tissue preparation was as follows: 15-day old chick embryos were decapitated and their eyes removed and cut into quadrants after excising the cornea and removing the lens, vitreous and iris. The retinal quadrants were then gently separated from the pigment epithelium and incubated for 30 min. at 37° C. in BSS to which an agonist or agonist plus antagonist was added. The BSS contained 140 mM Na^+, 5.0 mM K^+, 0.5 mM Ca^++, […], 150 mM Cl^-, 5.6 mM glucose and bicarbonate/phosphate buffer (pH 7.3). After incubation for 30 min., the retinal quadrants were fixed by immersion in phosphate-buffered solution containing 1.5% glutaraldehyde and 1% paraformaldehyde, then additionally fixed in 1% osmium tetroxide, dehydrated in graded ethanols, cleared in toluene and embedded in araldite. […]

The subject of data set [3] is H/I neuronal degeneration in Sprague Dawley rats, 10 days old. The data set is classed as in vivo. The method, then: A total of 30 Sprague Dawley rats, 10 days old, were used in this assay. Ten pups (5 control and 5 experimental) were studied on each of 3 separate days, the protocol being the same each day. A unilateral carotid ligation was performed under halothane anesthesia, and the incision was closed with super glue. After recovery from anesthesia, the experimental pups were given a subcutaneous injection of procyclidine (50 mg/kg in 0.1 ml aqueous solution, pH 7.4) and controls an equal volume sc injection of normal saline. Immediately thereafter, all 10 of the pups (half control and half experimental) were placed together in a large sealed transparent chamber and a partial vacuum was gradually created (pressure reduced from 760 to 200 mm Hg over a 1 minute period). A water bath surrounding the bottom half of the chamber kept the temperature inside at 38° C. After 75 minutes the pressure was returned gradually to 760 mm Hg over a 1 minute interval and, after a 2 hour observation period, the pups were anesthetized, the neck incision opened and the ligature removed from the carotid (a piece of tubing had originally been placed between the suture and vessel wall to facilitate subsequent removal of the suture without damage to the vessel wall). While still under anesthesia, the pups were sacrificed by perfusion fixation with aldehyde fixatives. Since the ligature had been removed from the occluded carotid, perfusate was able to distribute equally to the two hemispheres. After 15 minutes of perfusion, the brains were removed and sliced in 1 mm thick transverse slabs which were post fixed in osmium tetroxide, dehydrated in graded ethanols, cleared in toluene and embedded flat in araldite [J. W. Olney, "Glutamate-Induced Neuronal Necrosis In The Infant Mouse Hypothalamus: An Electron Microscopic Study", Neuropthol. Exp. Neurol., 30, 75-90 (1971)]. Sections (1 micron thick) were cut at 40 micron intervals and stained with azure II/methylene blue to permit a systematic microscopic evaluation of all regions of interest in each brain. In a large number of control infant rats (n>100) subjected to the above hypobaric/ischemic conditions, there has been shown a 90% survival rate (10% die in the hypobaric chamber) and a 94% incidence of brain damage which is always confined unilaterally to the side of the carotid ligation [J. M. Olney, "Hypoxia-Ischemia Causes Glutamate-Like Neuropathological changes in Infant Rat Brain", Neurosci Abst., 13, 1553 (1987)]. […] The damage in control rats consists of unilateral disseminated acute neuronal degeneration in some or all of the following regions: medial habenulum, dentate hippocampal gyrus, caudate nucleus, olfactory tubercle, islands of calleja, fronto-parietal neocortex and several thalamic nuclei. Two of 15 control and 2 of 15 experimental infants died in the hypobaric chamber. […] Among the 13 surviving procyclidine-treated pups, 10 had no damage in any of the above brain regions, 3 had small attenuated lesions, limited in two pups to the medial habenulum and in one to the caudate. […] Signs such as ataxia, head and body weaving, prostration and respiratory depression, which are sometimes seen in animals treated with antiexcitotoxic drugs, were not observed.

With `OC(CCN1CCCCC1)(c1ccccc1)C1CCCCC1` (stereo not drawn) [Trihexyphenidyl, α-cyclohexyl-α-phenyl-1-piperidinepropanol], the EC100 in data set [1] was found to be 125 µM. Besides, in data set [2], the “antagonist potency vs KA: concentration required to totally prevent a neurotoxic reaction” value (from here on “antagonist potency vs KA”) is reported as “--”.

Regarding `OC(CCN1CCCCC1)(c1ccccc1)C1CC2C=CC1C2` (stereo not drawn) [Biperiden, α-bicyclo[2.2.1]hept-5-en-2-yl-α-phenyl-1-piperidinepropanol], the EC100 in data set [1] came to 200 µM. Besides, the “antagonist potency vs KA” value in data set [2] is given as “--”.

Turning to `OC(CCN1CCCC1)(c1ccccc1)C1CCCCC1` (stereo not drawn) [Procyclidine, α-cyclohexyl-α-phenyl-1-pyrrolidinepropanol], the “treated animals with total protection against H/I neuronal degeneration” value in data set [3] (50 mg/kg sc) is recorded as ~80%. In data set [3] (50 mg/kg sc, 13 surviving treated pups, carotid ligation plus 75 min hypobaric), the “number of surviving treated pups with no damage in any of the brain regions” value stood at 10. In addition, the “number of surviving treated pups with small attenuated lesions” value in data set [3] (50 mg/kg sc, 13 surviving treated pups, two limited to medial habenulum, one to caudate) is recorded as 3. For the same compound, the “treated animals with markedly reduced severity of neuropathology” value in data set [3] (50 mg/kg sc, the remaining animals) is given as 20%. In addition, the “side effects of the single dose” value in data set [3] (rat, in vivo) was “minimal side effects”. In data set [2], the “antagonist potency vs KA” value was “--”.
